Assay results published in PubChem BioAssay (NCI).
Where “and” joins values, the source holds several entries; their conditions need not be identical. Identical values can stand only once.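 Each compound was tested at five concentrations against cells in 96-well plates for 48 hours. GI50 marks 50% less growth. Definition used: TGI = concentration required for complete inhibition of growth.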

Experiments:
Test in all cases: growth of human tumour cells (NCI), 48 h
NCI-H23 lung = tested on: NCI-H23 lung
CCRF-CEM leukemia = tested on: CCRF-CEM leukemia
NCI-H460 lung = tested on: NCI-H460 lung
KM12 colon = tested on: KM12 colon
OVCAR-5 ovarian = tested on: OVCAR-5 ovarian
786-0 renal = tested on: 786-0 renal
MDA-MB-231 breast = tested on: MDA-MB-231 breast
HCT-116 colon = tested on: HCT-116 colon
BT-549 breast = tested on: BT-549 breast
K-562 leukemia = tested on: K-562 leukemia
OVCAR-3 ovarian = tested on: OVCAR-3 ovarian
SN12C renal = tested on: SN12C renal
IGROV1 ovarian = tested on: IGROV1 ovarian
LOX IMVI melanoma = tested on: LOX IMVI melanoma
CAKI-1 renal = tested on: CAKI-1 renal
HOP-92 NSCLC = tested on: HOP-92 NSCLC
SW-620 colon = tested on: SW-620 colon
UACC-257 melanoma = tested on: UACC-257 melanoma
A498 renal = tested on: A498 renal
RPMI-8226 leukemia = tested on: RPMI-8226 leukemia
SNB-19 CNS = tested on: SNB-19 CNS
RXF 393 renal = tested on: RXF 393 renal
MDA-MB-435 = tested on: MDA-MB-435
PC-3 prostate = tested on: PC-3 prostate
HCT-15 colon = tested on: HCT-15 colon
HOP-62 NSCLC = tested on: HOP-62 NSCLC
SNB-75 CNS = tested on: SNB-75 CNS
DU-145 prostate = tested on: DU-145 prostate
SK-MEL-28 melanoma = tested on: SK-MEL-28 melanoma
SK-OV-3 ovarian = tested on: SK-OV-3 ovarian
MCF7 breast = tested on: MCF7 breast
OVCAR-4 ovarian = tested on: OVCAR-4 ovarian
SK-MEL-2 melanoma = tested on: SK-MEL-2 melanoma
MALME-3M melanoma = tested on: MALME-3M melanoma
HL-60(TB) leukemia = tested on: HL-60(TB) leukemia
SF-268 CNS = tested on: SF-268 CNS
SF-539 CNS = tested on: SF-539 CNS
SK-MEL-5 melanoma = tested on: SK-MEL-5 melanoma
SR leukemia = tested on: SR leukemia
TK-10 renal = tested on: TK-10 renal
NCI-H226 lung = tested on: NCI-H226 lung
M14 melanoma = tested on: M14 melanoma
ACHN renal = tested on: ACHN renal
OVCAR-8 ovarian = tested on: OVCAR-8 ovarian
COLO 205 colon = tested on: COLO 205 colon
UACC-62 melanoma = tested on: UACC-62 melanoma
NCI/ADR-RES ovarian = tested on: NCI/ADR-RES ovarian
SF-295 CNS = tested on: SF-295 CNS
HCC-2998 colon = tested on: HCC-2998 colon
HS 578T breast = tested on: HS 578T breast
NCI-H522 lung = tested on: NCI-H522 lung
UO-31 renal = tested on: UO-31 renal
T-47D breast = tested on: T-47D breast
EKVX NSCLC = tested on: EKVX NSCLC
U251 CNS = tested on: U251 CNS
MOLT-4 leukemia = tested on: MOLT-4 leukemia
HT29 colon = tested on: HT29 colon
A549 NSCLC = tested on: A549 NSCLC
MDA-N = tested on: MDA-N

CN1C=c2c3c(ccc2=C2C=CC4C=C5OCOC5=CC4=C21)OCO3 (stereo not given)
TGI (NCI-H23 lung): 2.95 µM and 10.3 µM
GI50 (CCRF-CEM leukemia): 0.21 µM and 1.03 µM
GI50 (NCI-H460 lung): 1.63 µM and 3.16 µM
TGI (NCI-H460 lung): 3.18 µM and 9.8 µM
GI50 (KM12 colon): 1.27 µM and 4.06 µM
TGI (KM12 colon): 2.8 µM and 13.2 µM
GI50 (OVCAR-5 ovarian): 1.65 µM and 6.19 µM
TGI (OVCAR-5 ovarian): 3.04 µM and 18.5 µM
TGI (786-0 renal): 2.65 µM and 3.06 µM
TGI (MDA-MB-231 breast): 2.54 µM and 4.52 µM
TGI (HCT-116 colon): 2.39 µM and 3.19 µM
TGI (BT-549 breast): 3.38 µM and 6.26 µM
GI50 (K-562 leukemia): 1.37 µM and 3.01 µM
TGI (OVCAR-3 ovarian): 2.16 µM and 3.2 µM
TGI (SN12C renal): 2.9 µM and 3.87 µM
TGI (IGROV1 ovarian): 3.05 µM and 4.01 µM
TGI (LOX IMVI melanoma): 3.17 µM and 3.33 µM
GI50 (CAKI-1 renal): 1.42 µM and 3.49 µM
TGI (CAKI-1 renal): 2.74 µM and 10.6 µM
GI50 (HOP-92 NSCLC): 1.62 µM and 5.71 µM
TGI (HOP-92 NSCLC): 3 µM and 14.1 µM
GI50 (SW-620 colon): 1.25 µM
TGI (SW-620 colon): 2.52 µM and 2.99 µM
TGI (UACC-257 melanoma): 3.26 µM and 10.1 µM
GI50 (A498 renal): 2.24 µM and 14.1 µM
TGI (A498 renal): 5.04 µM and 27.1 µM
GI50 (RPMI-8226 leukemia): 0.625 µM and 2.24 µM
TGI (RPMI-8226 leukemia): 1.86 µM and 6.79 µM
GI50 (SNB-19 CNS): 1.65 µM and 12.2 µM
TGI (SNB-19 CNS): 3.07 µM and 25 µM
TGI (RXF 393 renal): 2.57 µM and 4.4 µM
TGI (MDA-MB-435): 2.45 µM and 3.61 µM
TGI (PC-3 prostate): 2.85 µM and 9.48 µM
TGI (HCT-15 colon): 2.89 µM and 3.2 µM
TGI (HOP-62 NSCLC): 2.97 µM and 6.29 µM
TGI (SNB-75 CNS): 3.49 µM and 14.6 µM
GI50 (DU-145 prostate): 2.2 µM and 11.9 µM
TGI (DU-145 prostate): 3.76 µM and 24.3 µM
TGI (SK-MEL-28 melanoma): 3.07 µM and 7.28 µM
GI50 (SK-OV-3 ovarian): 1.85 µM and 12.7 µM
TGI (SK-OV-3 ovarian): 3.96 µM and 25.4 µM
GI50 (MCF7 breast): 1.48 µM and 4.4 µM
TGI (MCF7 breast): 2.89 µM and 17.4 µM
TGI (OVCAR-4 ovarian): 3.53 µM and 7.5 µM
TGI (SK-MEL-2 melanoma): 3.53 µM and 5.87 µM
TGI (MALME-3M melanoma): 3.05 µM and 5.92 µM
TGI (HL-60(TB) leukemia): 0.434 µM and 0.847 µM
TGI (SF-268 CNS): 3.46 µM and 6.76 µM
TGI (SF-539 CNS): 3.18 µM and 4.8 µM
TGI (SK-MEL-5 melanoma): 2.95 µM and 6.14 µM
GI50 (SR leukemia): 2.48 µM
GI50 (TK-10 renal): 1.77 µM and 12 µM
TGI (TK-10 renal): 3.2 µM and 24.9 µM
GI50 (NCI-H226 lung): 1.82 µM and 7.18 µM
TGI (NCI-H226 lung): 3.36 µM and 14.7 µM
TGI (M14 melanoma): 2.55 µM and 3.78 µM
GI50 (ACHN renal): 1.68 µM and 1.85 µM
TGI (ACHN renal): 3.08 µM and 5.03 µM
GI50 (OVCAR-8 ovarian): 0.423 µM and 1.52 µM
TGI (OVCAR-8 ovarian): 1.64 µM and 4.19 µM
TGI (COLO 205 colon): 2.78 µM and 3.5 µM
GI50 (UACC-62 melanoma): 1.91 µM
GI50 (NCI/ADR-RES ovarian): 1.58 µM and 6.13 µM
TGI (NCI/ADR-RES ovarian): 3.27 µM and 14.3 µM
GI50 (SF-295 CNS): 1.79 µM and 8.51 µM
TGI (SF-295 CNS): 3.2 µM and 21.9 µM
GI50 (HCC-2998 colon): 1.56 µM and 6.55 µM
TGI (HCC-2998 colon): 3.24 µM and 16.2 µM
TGI (HS 578T breast): > 24.9 µM and 5.78 µM
TGI (NCI-H522 lung): 2.76 µM and 3.3 µM
TGI (UO-31 renal): 2.79 µM and 5 µM
TGI (T-47D breast): 4.31 µM and 5.01 µM
GI50 (EKVX NSCLC): 1.72 µM and 13.5 µM
TGI (EKVX NSCLC): 3.16 µM and 26.3 µM
TGI (U251 CNS): 3.05 µM and 5.73 µM
GI50 (MOLT-4 leukemia): 0.253 µM and 1.74 µM
TGI (HT29 colon): 3.02 µM and 5.1 µM
GI50 (A549 NSCLC): 1.77 µM and 6.26 µM
TGI (A549 NSCLC): 3.95 µM and 18.8 µM
TGI (MDA-N): 2.79 µM and 3.98 µM
